The values below come from patent EP4752142A1, “5-HT2A RECEPTOR AGONIST, AND PREPARATION METHOD THEREFOR AND USE THEREOF” (Innovstone Therapeutics Limited, priority 2023, dated 2025).

Read-outs that look alike come from different tables or passages of the source. Bounds are passed on as bounds.

For the assay, the target named is 5-HT2A receptor (Homo sapiens, UniProt P28223). As to the kind of experiment: 5-HT2A receptor isotope competition affinity assay. It is filed as binding. On the procedure: A radiolabeled ligand (agonist or antagonist) incubated with receptor protein could form a receptor-ligand complex. An added test compound could compete with the isotopically labeled ligand for the receptor binding, eventually forming a relative steady-state equilibrium. The affinity of the test compound for the receptor was indirectly evaluated by measuring the dissociation of the isotopically labeled ligand from the receptor.
5-HT2A receptor, sequence (P28223 whole entry): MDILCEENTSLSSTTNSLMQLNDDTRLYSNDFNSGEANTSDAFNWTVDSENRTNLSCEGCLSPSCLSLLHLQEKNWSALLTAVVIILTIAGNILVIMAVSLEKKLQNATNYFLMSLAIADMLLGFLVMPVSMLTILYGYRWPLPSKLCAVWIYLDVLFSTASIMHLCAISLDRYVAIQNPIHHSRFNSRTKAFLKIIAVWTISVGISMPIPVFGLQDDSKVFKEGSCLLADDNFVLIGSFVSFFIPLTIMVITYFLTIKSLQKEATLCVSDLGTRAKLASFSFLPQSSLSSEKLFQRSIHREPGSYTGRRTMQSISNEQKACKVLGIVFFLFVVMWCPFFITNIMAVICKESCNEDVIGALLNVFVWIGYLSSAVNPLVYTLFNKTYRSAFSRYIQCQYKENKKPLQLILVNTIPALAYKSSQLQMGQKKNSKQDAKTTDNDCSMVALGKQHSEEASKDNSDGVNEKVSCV
A 100x serial gradient dilution of compounds was prepared in DMSO, starting from 1 mM with 4-fold serial dilutions, resulting in 10 concentration points. Using a pipettor, 1 µL of each gradient concentration of the test compound (final concentration starting at 10 µM, 4-fold serial dilutions, 10 concentration points) was transferred to a 96-well assay plate, to each well of which 49 µL of 5-HT2A receptor protein (102 µg/mL, prepared in an assay buffer: 50 mM Tris-HCl, pH 7.4) had been added in advance (final concentration 5 µg/well). This was followed by the addition of 50 µL of isotopically labeled [^3H]-Ketanserin (2 nM, 2× final concentration, prepared in the assay buffer). The plate was sealed and incubated on a shaker at room temperature for 1 hour. The reaction mixture was filtered through a Unifilter-96 GF/C filter plate pre-treated with 0.3% PEI. The filter plate was washed with a precooled (4°C) assay buffer and then dried in an incubator at 50°C. A scintillation liquid was added, and the plate was read using a MicroBeta2 instrument. The percentage inhibition was calculated using the equation: %Inhibition=(CountHigh Signal Control-CountSample)/(CountHigh Signal Control-CountLow Signal Control)*100. A four-parameter logistic fit was used to calculate the IC50 value. High Signal Control: No compound group (the same volume of DMSO substituted). Low Signal Control: Ketanserin group (non-isotopically labeled, 2× final concentration). Table 1: Results of 5-HT2A receptor isotope competition affinity assay, Ki Values

The mark [1] stands for this setting: competition with [3H]-Ketanserin, 1 hour, room temperature, read-out: 5-HT2A receptor/Ki.

Consider `COc1ccccc1CCN1CCC(c2c[nH]c3cccc(O)c23)C1` (stereo not drawn) [Compound 1, 3-(1-(2-(2-methoxyphenyl)ethyl)pyrrolidin-3-yl)-1H-indol-4-ol], for which the Ki under setting [1] is less than 100 nM. Consider `COc1ccccc1CCCN1CCCC(c2c[nH]c3cccc(O)c23)C1` (stereo not drawn) [Compound 4, 3-(1-(3-(2-methoxyphenyl)propyl)piperidin-3-yl)-1H-indol-4-ol], for which, under setting [1], the Ki was less than 100 nM. Same read-out and setting: with `COc1ccccc1CCCN1CCC(c2c[nH]c3ccccc23)C1` (stereo not drawn) [Compound 5, 3-(1-(3-(2-methoxyphenyl)propyl)pyrrolidin-3-yl)-1H-indole] the figure was less than 100 nM; with `COc1ccccc1CCCN1CCC(n2ccc3cc(F)ccc32)C1` (stereo not drawn) [Compound 7], less than 100 nM. Turning to `COc1ccccc1CCCN1CCC(c2c[nH]c3cccc(F)c23)C1` (stereo not drawn) [Compound 8], the Ki under setting [1] is less than 100 nM. With `COc1ccccc1CCCN1CCC(c2c[nH]c3cccc(OC)c23)C1` (stereo not drawn) [Compound 9], the Ki under setting [1] is less than 100 nM. On to `COc1ccccc1C1CCN(CCc2c[nH]c3cccc(O)c23)CC1` [Compound 10, 3-(2-(4-(2-methoxyphenyl)piperidin-1-yl)ethyl)-1H-indol-4-ol], for which the Ki under setting [1] was less than 100 nM. Take `COc1ccccc1CCCN1CC(c2c[nH]c3ccccc23)C1` [Compound 11, 3-(1-(3-(2-methoxyphenyl)propyl)azetidin-3-yl)-1H-indole]: the Ki under setting [1] is less than 100 nM. On the same count and under the same terms, the result for `COc1ccccc1CCCN1C2CCC1C(c1c[nH]c3ccccc13)C2` (stereo not drawn) [Compound 16, 3-(7-(3-(2-methoxyphenyl)propyl)-7-azabicyclo[2.2.1]heptan-2-yl)-1H-indole] reads less than 100 nM; that for `COc1ccccc1CCCN1CCC(c2c[nH]c3ncccc23)C1` (stereo not drawn) [Compound 22], less than 100 nM.

Consider `COc1ccccc1CCCN1CCC(c2n[nH]c3ccccc23)C1` (stereo not drawn) [Compound 23], for which the Ki under setting [1] is less than 100 nM. Turning to `COc1ccccc1CCCN1CCOC(c2c[nH]c3ccccc23)C1` (stereo not drawn) [Compound 29, 2-(1H-indol-3-yl)-4-(3-(2-methoxyphenyl)propyl)morpholine], the Ki is less than 100 nM. As for `COc1ccccc1CCCN1CCC(c2n[nH]c3ccncc23)C1` (stereo not drawn) [Compound 30], under setting [1], the Ki is less than 100 nM.

For the compound `COc1ccccc1CCCN1CCOC(c2c[nH]c3ccncc23)C1` (stereo not drawn) [Compound 34, 4-(3-(2-methoxyphenyl)propyl)-2-(1H-pyrrolo[3,2-c]pyridin-3-yl)morpholine], the Ki was less than 100 nM.

For the compound `COc1ccccc1CCCN1CCOC(c2n[nH]c3ccccc23)C1` (stereo not drawn) [Compound 37, 3-(4-(3-(2-methoxyphenyl)propyl)morpholin-2-yl)-1H-indazole], the Ki is less than 100 nM. Take `Oc1cccc2[nH]cc(C3CN(CCCc4cc(F)ccc4F)CCO3)c12` (stereo not drawn) [Compound 40]: under setting [1], the Ki is less than 100 nM.

On to `c1ccc2c(C3CCN(CCCc4nncs4)C3)c[nH]c2c1` (stereo not drawn) [Compound 50, 3-(1-(3-(1,3,4-thiadiazol-2-yl)propyl)pyrrolidin-3-yl)-1H-indole], for which the Ki was less than 100 nM. Take `c1ccc2c(C3CCN(CCCc4ncsn4)C3)c[nH]c2c1` (stereo not drawn) [Compound 55, 3-(1-(3-(1,2,4-thiadiazol-3-yl)propyl)pyrrolidin-3-yl)-1H-indole]: the Ki under setting [1] is less than 100 nM. As for `Cn1cc(CCCN2CCC(c3c[nH]c4ccccc34)C2)cn1` (stereo not drawn) [Compound 57, 3-(1-(3-(1-methyl-1H-pyrazol-4-yl)propyl)pyrrolidin-3-yl)-1H-indole], the Ki under setting [1] is less than 100 nM.

On to `Cn1cc(CCCN2CCC(n3ccc4cc(F)ccc43)C2)cn1` (stereo not drawn) [Compound 61], for which the Ki under setting [1] was less than 100 nM. For the compound `Cn1cc(CCCN2CCC(c3noc4cc(F)ccc34)C2)cn1` (stereo not drawn) [Compound 68], the Ki under setting [1] is less than 100 nM. `Cn1cc(CCCN2CCC(c3n[nH]c4ccccc34)C2)cn1` (stereo not drawn) [Compound 69, 3-(1-(3-(1-methyl-1H-pyrazol-4-yl)propyl)pyrrolidin-3-yl)-1H-indazole] gave a Ki of less than 100 nM. Consider `CC(C)n1cnnc1CCCN1CCC(c2c[nH]c3ccccc23)C1` (stereo not drawn) [Compound 79], for which the Ki under setting [1] is less than 100 nM. On to `CC(C)n1cnnc1CCCN1CCC(n2ccc3cc(F)ccc32)C1` (stereo not drawn) [Compound 80], for which, under setting [1], the Ki was less than 100 nM.

Turning to `Fc1ccc2c(C3CCN(CCCc4nncn4CC(F)(F)F)C3)c[nH]c2c1` (stereo not drawn) [Compound 83], the Ki under setting [1] is less than 100 nM. For `CC(C)n1cnnc1CCCN1CCC(c2c[nH]c3cc(F)ccc23)C1` (stereo not drawn) [Compound 84], under setting [1], the Ki is less than 100 nM. On to `Cc1nnc(CCCN2CCC(c3c[nH]c4ccccc34)C2)n1C(C)C` (stereo not drawn) [Compound 86, 3-(1-(3-(5-methyl-4-(propan-2-yl)-4H-1,2,4-triazol-3-yl)propyl)pyrrolidin-3-yl)-1H-indole], for which, under setting [1], the Ki is less than 100 nM. On the same count and under the same terms, with `CC1CN(CCCc2nncn2C(C)C)CC1c1c[nH]c2cc(F)ccc12` (stereo not drawn) [Compound 90, 6-fluoro-3-(4-methyl-1-(3-(4-(propan-2-yl)-4H-1,2,4-triazol-3-yl)propyl)pyrrolidin-3-yl)-1H-indole] the figure was less than 100 nM; with `CC(CCc1nncn1C(C)C)N1CCC(c2c[nH]c3cc(F)ccc23)C1` (stereo not drawn) [Compound 91], less than 100 nM. Take `Fc1ccc2c(C3CCN(CCCc4nncn4C4CCC4)C3)c[nH]c2c1` (stereo not drawn) [Compound 92]: under setting [1], the Ki was less than 100 nM. Regarding `Fc1ccc2c(C3CCN(CCCc4nncn4C4CC4)C3)c[nH]c2c1` (stereo not drawn) [Compound 99], the Ki under setting [1] was less than 100 nM. In the case of `CC(C)n1c(CCCN2CCC(c3c[nH]c4cc(F)ccc34)C2)nnc1C(F)(F)F` (stereo not drawn) [Compound 100], the Ki under setting [1] is less than 100 nM. Regarding `Cc1nnc(CCCN2CCC(n3ccc4cc(F)ccc43)C2)n1C(C)C` (stereo not drawn) [Compound 103], the Ki under setting [1] is less than 100 nM. For `COc1ncncc1CCCN1CCC(c2c[nH]c3ccccc23)C1` (stereo not drawn) [Compound 132, 3-(1-(3-(4-methoxypyrimidin-5-yl)propyl)pyrrolidin-3-yl)-1H-indole], under setting [1], the Ki is less than 100 nM. With `Oc1cccc2[nH]cc(C3CCN(CCc4coc5c(F)cccc45)C3)c12` (stereo not drawn) [Compound 135], under setting [1], the Ki is less than 100 nM. Still for that read-out and setting: the result for `CC(C)c1nnc2n1CCC(CN1CCC(c3c[nH]c4ccccc34)C1)C2` (stereo not drawn) [Compound 139, 7-((3-(1H-indol-3-yl)pyrrolidin-1-yl)methyl)-3-isopropyl-5,6,7,8-tetrahydro-[1,2,4]triazolo[4,3-a]pyridine] reads less than 100 nM. For the compound `c1ccc2c(c1)CC(CN1CCC(c3c[nH]c4ccncc34)C1)CO2` (stereo not drawn) [Compound 141], the Ki under setting [1] is less than 100 nM. On to `c1ccc2c(C3CCN(CCc4nnc5sccn45)C3)c[nH]c2c1` (stereo not drawn) [Compound 143, 3-(2-(3-(1H-indol-3-yl)pyrrolidin-1-yl)ethyl)thiazolo[2,3-c][1,2,4]triazole], for which the Ki under setting [1] was less than 100 nM. Regarding `c1ccc2c(C3CCN(CC4CCn5c(nnc5C5CC5)C4)C3)c[nH]c2c1` (stereo not drawn) [Compound 145, 3-(1-((3-cyclopropyl-SH,6H,7H,8H-[1,2,4]triazolo[4,3-a]pyridine-7-yl)methyl)pyrrolidin-3-yl)-1H-indole], the Ki under setting [1] was less than 100 nM. On the same count and under the same terms, with `COc1cccc2nnc(CCN3CCC(c4c[nH]c5cc(F)ccc45)C3)n12` (stereo not drawn) [Compound 147, 6-fluoro-3-(1-(2-(5-methoxy-(1,2,4)triazolo(4,3-a)pyridin-3-yl)ethyl)pyrrolidin-3-yl)-1H-indole] the figure was less than 100 nM. As to `COc1ccc(F)c2nnc(CCN3CC(c4c[nH]c5cc(F)ccc45)C3)n12` [Compound 148, 6-fluoro-3-(1-(2-(8-fluoro-5-methoxy-(1,2,4)triazolo(4,3-a)pyridin-3-yl)ethyl)azetidin-3-yl)-1H-indole], the Ki under setting [1] is less than 100 nM. As for `Fc1ccc2c(C3CCN(CCc4nnc5c(F)cccn45)C3)c[nH]c2c1` (stereo not drawn) [Compound 149, 6-fluoro-3-(1-(2-(8-fluoro-(1,2,4)triazolo[4,3-a]pyridin-3-yl)ethyl)pyrrolidin-3-yl)-1H-indole], the Ki under setting [1] is less than 100 nM.

As to `Oc1cccc2[nH]cc(C3CCN(CCCc4ncon4)C3)c12` (stereo not drawn) [Compound 173, 3-(1-(3-(1,2,4-oxadiazol-3-yl)propyl)pyrrolidin-3-yl)-1H-indol-4-ol], the Ki under setting [1] is less than 100 nM. The same measure, in the same setting: with `CC(C)c1nc(CCCN2CCC(c3c[nH]c4cccc(O)c34)C2)no1` (stereo not drawn) [Compound 174, 3-(1-(3-(5-isopropyl-1,2,4-oxadiazol-3-yl)propyl)pyrrolidin-3-yl)-1H-indol-4-ol] the figure was less than 100 nM; with `CC(C)c1nc(CCCN2CCC(c3n[nH]c4ccccc34)C2)no1` (stereo not drawn) [Compound 175, 3-(3-(-3-(1H-indazol-3-yl)pyrrolidin-1-yl)propyl)-5-isopropyl-1,2,4-oxadiazole], less than 100 nM. For `c1ccc2c([C@H]3CCN(CCCn4nccn4)C3)c[nH]c2c1` [Compound 177, (R)-3-(1-(3-(2H-1,2,3-triazol-2-yl)propyl)pyrrolidin-3-yl)-1H-indole], the Ki under setting [1] was less than 100 nM. Regarding `c1ccc2c([C@@H]3CCN(CCCn4nccn4)C3)c[nH]c2c1` [Compound 178, (S)-3-(1-(3-(2H-1,2,3-triazol-2-yl)propyl)pyrrolidin-3-yl)-1H-indole], the Ki under setting [1] was less than 100 nM. Regarding `C1=C(c2c[nH]c3ccccc23)CN(CCCn2nccn2)CC1` [Compound 179, 3-(1-(3-(2H-1,2,3-triazol-2-yl)propyl)-1,2,5,6-tetrahydropyridin-3-yl)-1H-indole], the Ki under setting [1] was less than 100 nM.
